Results: US20250388589A1, “TRICYCLIC HETEROCYCLIC DERIVATIVES, COMPOSITIONS AND USES THEREOF” (Danatlas Pharmaceuticals Co., Ltd., priority 2022, published 2025)
pIC50: −log10 of the molar value.

Tests used:
[1] = target: hPARG (C-terminal His6-tag) (Homo sapiens (Human), UniProt Q86W56); test: PARG Enzymatic Activity Assay (HTRF); assay type: biochemical; conditions: hPARG 65 pM final, biotinylated-NAD ribosylated PARP1 8 nM final
Procedure, shortened: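 E. coli-expressed enzyme (65 pM final) preincubated 60 min RT with compounds (10-point 4-fold dilution, duplicate) in 50 mM Tris pH 7.4, 3 mM EDTA, 1 mM DTT, 50 mM KCl, 0.01% Tween 20. Biotinylated-NAD ribosylated PARP1 substrate (8 nM final) reacted 10 min RT; Eu-streptavidin/anti-6HIS-XL665 HTRF read 665/620 nm after 60 min. IC50 from 4-parameter Hill fit.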

Kuramochi cell line = test: Cell Viability Assay (Cell Titer-Glo, 7 days); assay type: cell-based; conditions: 168 h, Kuramochi cells, 7 days incubation, read-out: PARG Cell viability (IC50)
Procedure, shortened: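 Kuramochi cells in RPMI with 10% FBS, seeded at 400 cells/well, were treated with a 9-point 3-fold dilution series in duplicate for 7 days at 37 °C, 5% CO2. Viability by CellTiter-Glo luminescence, normalised to DMSO and medium-only controls; IC50 from 4-parameter Hill fit.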

Sequence of hPARG (C-terminal His6-tag) (Q86W56 whole entry): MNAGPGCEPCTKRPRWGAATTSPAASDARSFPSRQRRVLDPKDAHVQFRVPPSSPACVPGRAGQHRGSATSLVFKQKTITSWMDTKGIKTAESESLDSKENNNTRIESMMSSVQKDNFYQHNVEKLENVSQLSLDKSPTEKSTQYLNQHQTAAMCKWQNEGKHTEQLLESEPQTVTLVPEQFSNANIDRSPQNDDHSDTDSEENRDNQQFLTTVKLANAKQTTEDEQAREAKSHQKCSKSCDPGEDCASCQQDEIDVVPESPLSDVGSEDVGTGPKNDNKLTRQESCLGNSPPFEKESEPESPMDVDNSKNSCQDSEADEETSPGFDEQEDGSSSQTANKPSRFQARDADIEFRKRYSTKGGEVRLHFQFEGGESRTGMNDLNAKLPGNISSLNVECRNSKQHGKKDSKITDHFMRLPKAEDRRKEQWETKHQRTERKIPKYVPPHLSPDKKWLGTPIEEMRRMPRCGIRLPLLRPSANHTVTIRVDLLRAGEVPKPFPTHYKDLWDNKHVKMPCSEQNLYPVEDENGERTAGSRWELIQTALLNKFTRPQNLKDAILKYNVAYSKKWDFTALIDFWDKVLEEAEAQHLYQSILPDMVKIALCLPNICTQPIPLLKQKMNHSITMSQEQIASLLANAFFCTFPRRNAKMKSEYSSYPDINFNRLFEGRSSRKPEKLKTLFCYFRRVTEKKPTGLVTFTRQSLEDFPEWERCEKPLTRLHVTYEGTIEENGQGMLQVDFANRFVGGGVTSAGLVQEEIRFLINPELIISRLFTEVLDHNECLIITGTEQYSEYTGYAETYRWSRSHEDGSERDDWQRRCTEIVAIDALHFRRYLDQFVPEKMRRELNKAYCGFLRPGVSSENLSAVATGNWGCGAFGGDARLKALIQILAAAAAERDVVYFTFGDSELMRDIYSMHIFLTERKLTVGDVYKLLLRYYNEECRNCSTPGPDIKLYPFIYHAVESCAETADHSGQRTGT

| pIC50 [1] | SMILES | pIC50 (Kuramochi cell line) |
| --- | --- | --- |
| > 7.00 | N#CC1(NS(=O)(=O)c2ccc3c4c(C5=CCOCC5)ncnc4n(-c4nnc(C(F)F)s4)c3c2)CC1 [Example 78, N-(1-Cyanocyclopropyl)-9-(5-(difluoromethyl)-1,3,4-thiadiazol-2-yl)-4-(3,6-dihydro-2H-pyran-4-yl)-9H-pyrimido[4,5-b]indole-7-sulfonamide] | 6.00 to 7.00 |
| > 7.00 | N#CC1(NS(=O)(=O)c2ccc3c4c(N5CCN(C(=O)C6CCOC6)CC5)ncnc4n(-c4nnc(C(F)F)s4)c3c2)CC1 (stereo not shown) [Example 34, N-(1-Cyanocyclopropyl)-9-(5-(difluoromethyl)-1,3,4-thiadiazol-2-yl)-4-(4-(tetrahydrofuran-3-carbonyl)piperazin-1-yl)-9H-pyrimido[4,5-b]indole-7-sulfonamide] | > 7.00 |
| > 7.00 | N#CC1(NS(=O)(=O)c2ccc3c4c(N5CC6CCC(C5)O6)ncnc4n(-c4nnc(C(F)F)s4)c3c2)CC1 [Example 201, 4-(8-Oxa-3-azabicyclo[3.2.1]octan-3-yl)-N-(1-cyanocyclopropyl)-9-(5-(difluoromethyl)-1,3,4-thiadiazol-2-yl)-9H-pyrimido[4,5-b]indole-7-sulfonamide] | > 7.00 |
| > 7.00 | CN(C)C(=O)c1ccc(-c2ncnc3c2c2ccc(S(=O)(=O)NC4(C#N)CC4)cc2n3-c2nnc(C(F)F)s2)cn1 [Example 97, 5-(7-(N-(1-cyanocyclopropyl)sulfamoyl)-9-(5-(difluoromethyl)-1,3,4-thiadiazol-2-yl)-9H-pyrimido[4,5-b]indol-4-yl)-N,N-dimethylpicolinamide] | > 7.00 |
| > 7.00 | N#CC1(NS(=O)(=O)c2ccc3c4c(N5CCS(=O)(=O)CC5)ncnc4n(-c4nnc(C(F)F)s4)c3c2)CC1 [Example 166, N-(1-cyanocyclopropyl)-9-(5-(difluoromethyl)-1,3,4-thiadiazol-2-yl)-4-(1,1-dioxidothiomorpholino)-9H-pyrimido[4,5-b]indole-7-sulfonamide] | 6.00 to 7.00 |
| > 7.00 | CN1CCC(c2ncnc3c2c2ccc(S(=O)(=O)NC4(C#N)CC4)cc2n3-c2nnc(C(F)F)s2)CC1 [Example 146, N-(1-Cyanocyclopropyl)-9-(5-(difluoromethyl)-1,3,4-thiadiazol-2-yl)-4-(1-methylpiperidin-4-yl)-9H-pyrimido[4,5-b]indole-7-sulfonamide] | > 7.00 |
| > 7.00 | CC(C)(N)C(=O)N1CCC(c2ncnc3c2c2ccc(S(=O)(=O)NC4(C#N)CC4)cc2n3-c2nnc(C(F)F)s2)CC1 [Example 126, 4-(1-(2-Amino-2-methylpropanoyl)piperidin-4-yl)-N-(1-cyanocyclopropyl)-9-(5-(difluoromethyl)-1,3,4-thiadiazol-2-yl)-9H-pyrimido[4,5-b]indole-7-sulfonamide] | 6.00 to 7.00 |
| > 7.00 | N#CC1(NS(=O)(=O)c2ccc3c4c(N5CCc6cc(CO)cnc6C5)ncnc4n(-c4nnc(C(F)F)s4)c3c2)CC1 [Example 181, N-(1-Cyanocyclopropyl)-9-(5-(difluoromethyl)-1,3,4-thiadiazol-2-yl)-4-(3-(hydroxymethyl)-5,8-dihydro-1,7-napthyridin-7(6H)-yl)-9H-pyrimido[4,5-b]indole-7-sulfonamide] | 6.00 to 7.00 |
| > 7.00 | CN(CC(F)(F)F)C(=O)N1CCN(c2ncnc3c2c2ccc(S(=O)(=O)NC4(C#N)CC4)cc2n3-c2nnc(C(F)F)s2)CC1 [Example 42, 4-(7-(N-(1-Cyanocyclopropyl)sulfamoyl)-9-(5-(difluoromethyl)-1,3,4-thiadiazol-2-yl)-9H-pyrimido[4,5-b]indol-4-yl)-N-methyl-N-(2,2,2-trifluoroethyl)piperazine-1-carboxamide] | > 7.00 |
| > 7.00 | CN(C)C(=O)N1CC2CN(c3ncnc4c3c3ccc(S(=O)(=O)NC5(C#N)CC5)cc3n4-c3nnc(C(F)F)s3)CC2C1 (stereo not shown) [Example 28, 5-(7-(N-(1-Cyanocyclopropyl)sulfamoyl)-9-(5-(difluoromethyl)-1,3,4-thiadiazol-2-yl)-9H-pyrimido[4,5-b]indol-4-yl)-N,N-dimethylhexahydropyrrolo[3,4-c]pyrrole-2(1H)-carboxamide] | 6.00 to 7.00 |
| > 7.00 | N#CC1(NS(=O)(=O)c2ccc3c4c(N5C[C@@H]6C[C@H]5CO6)ncnc4n(-c4nnc(C(F)F)s4)c3c2)CC1 [Example 177, 4-((1S,4S)-2-oxa-5-azabicyclo[2.2.1]heptan-5-yl)-N-(1-cyanocyclopropyl)-9-(5-(difluoromethyl)-1,3,4-thiadiazol-2-yl)-9H-pyrimido[4,5-b]indole-7-sulfonamide] | > 7.00 |
| > 7.00 | CC(C)C(=O)N1CCC(c2ncnc3c2c2ccc(S(=O)(=O)NC4(C#N)CC4)cc2n3-c2nnc(C(F)F)s2)C[C@@H]1C (stereo partly drawn) [Example 151, N-(1-Cyanocyclopropyl)-9-(5-(difluoromethyl)-1,3,4-thiadiazol-2-yl)-4-((2S)-1-isobutyryl-2-methylpiperidin-4-yl)-9H-pyrimido[4,5-b]indole-7-sulfonamide] | > 7.00 |
| > 7.00 | CC(C)CN1CCN(c2ncnc3c2c2ccc(S(=O)(=O)NC4(C#N)CC4)cc2n3-c2nnc(C(F)F)s2)CC1=O [Example 158, N-(1-cyanocyclopropyl)-9-(5-(difluoromethyl)-1,3,4-thiadiazol-2-yl)-4-(4-isobutyl-3-oxopiperazin-1-yl)-9H-pyrimido[4,5-b]indole-7-sulfonamide] | > 7.00 |
| > 7.00 | N#CC1(NS(=O)(=O)c2ccc3c4c(N5CCC6(CCCO6)CC5)ncnc4n(-c4nnc(C(F)F)s4)c3c2)CC1 [Example 182, N-(1-Cyanocyclopropyl)-9-(5-(difluoromethyl)-1,3,4-thiadiazol-2-yl)-4-(1-oxa-8-azaspiro[4.5]decan-8-yl)-9H-pyrimido[4,5-b]indole-7-sulfonamide] | > 7.00 |
| > 7.00 | N#CC1(NS(=O)(=O)c2ccc3c4c(N5CCC6(CC5)COC6)ncnc4n(-c4nnc(C(F)F)s4)c3c2)CC1 [Example 20, N-(1-Cyanocyclopropyl)-9-(5-(difluoromethyl)-1,3,4-thiadiazol-2-yl)-4-(2-oxa-7-azaspiro[3.5]nonan-7-yl)-9H-pyrimido[4,5-b]indole-7-sulfonamide] | > 7.00 |
| > 7.00 | N#CC1(NS(=O)(=O)c2ccc3c4c(C5CCN(C(=O)N6CC[C@@H](O)C6)CC5)ncnc4n(-c4nnc(C(F)F)s4)c3c2)CC1 [Example 129, (R)—N-(1-Cyanocyclopropyl)-9-(5-(difluoromethyl)-1,3,4-thiadiazol-2-yl)-4-(1-(3-hydroxypyrrolidine-1-carbonyl)piperidin-4-yl)-9H-pyrimido[4,5-b]indole-7-sulfonamide] | 6.00 to 7.00 |
| 6.00 to 7.00 | CCN1CCN(c2ncnc3c2c2ccc(S(=O)(=O)NC4(C#N)CC4)cc2n3-c2nnc(C(F)F)s2)C[C@@H]1C [Example 163, (S)-N-(1-cyanocyclopropyl)-9-(5-(difluoromethyl)-1,3,4-thiadiazol-2-yl)-4-(4-ethyl-3-methylpiperazin-1-yl)-9H-pyrimido[4,5-b]indole-7-sulfonamide] | > 7.00 |
| > 7.00 | CO[C@@H](C)C(=O)N1CCC(c2ncnc3c2c2ccc(S(=O)(=O)NC4(C#N)CC4)cc2n3-c2nnc(C(F)F)s2)CC1 [Example 108, (S)-N-(1-Cyanocyclopropyl)-9-(5-(difluoromethyl)-1,3,4-thiadiazol-2-yl)-4-(1-(2-methoxypropanoyl)piperidin-4-yl)-9H-pyrimido[4,5-b]indole-7-sulfonamide] | > 7.00 |
| > 7.00 | CO[C@H](C)C(=O)N1CCC(c2ncnc3c2c2ccc(S(=O)(=O)NC4(C#N)CC4)cc2n3-c2nnc(C(F)F)s2)CC1 [Example 109, (R)-N-(1-cyanocyclopropyl)-9-(5-(difluoromethyl)-1,3,4-thiadiazol-2-yl)-4-(1-(2-methoxypropanoyl)piperidin-4-yl)-9H-pyrimido[4,5-b]indole-7-sulfonamide] | > 7.00 |
| > 7.00 | N#CC1(NS(=O)(=O)c2ccc3c4c(N5CCN6CCOC[C@H]6C5)ncnc4n(-c4nnc(C(F)F)s4)c3c2)CC1 [Example 161, (R)-N-(1-cyanocyclopropyl)-9-(5-(difluoromethyl)-1,3,4-thiadiazol-2-yl)-4-(hexahydropyrazino[2,1-c][1,4]oxazin-8(1H)-yl)-9H-pyrimido[4,5-b]indole-7-sulfonamide] | > 7.00 |
| > 7.00 | CN1CCN(C(=O)N2CCN(c3ncnc4c3c3ccc(S(=O)(=O)NC5(C#N)CC5)cc3n4-c3nnc(C(F)F)s3)CC2)CC1 [Example 9, N-(1-Cyanocyclopropyl)-9-(5-(difluoromethyl)-1,3,4-thiadiazol-2-yl)-4-(4-(4-methylpiperazine-1-carbonyl)piperazin-1-yl)-9H-pyrimido[4,5-b]indole-7-sulfonamide] | 6.00 to 7.00 |
| > 7.00 | N#CC1(NS(=O)(=O)c2ccc3c4c(N5CCC(F)CC5)ncnc4n(-c4nnc(C(F)F)s4)c3c2)CC1 [Example 51, N-(1-Cyanocyclopropyl)-9-(5-(difluoromethyl)-1,3,4-thiadiazol-2-yl)-4-(4-fluoropiperidin-1-yl)-9H-pyrimido[4,5-b]indole-7-sulfonamide] | 6.00 to 7.00 |
| > 7.00 | C[C@@H]1CN(C(=O)N(C)C)[C@@H](C)CN1c1ncnc2c1c1cc(F)c(S(=O)(=O)NC3(C#N)CC3)cc1n2-c1nnc(C(F)F)s1 [Example 45, (2S,5R)-4-(7-(N-(1-Cyanocyclopropyl)sulfamoyl)-9-(5-(difluoromethyl)-1,3,4-thiadiazol-2-yl)-6-fluoro-9H-pyrimido[4,5-b]indol-4-yl)-N,N,2,5-tetramethylpiperazine-1-carboxamide] | > 7.00 |
